The subject of data set [1] is Candida albicans. The experiment in a line: Survival of mice given a single abu-MDP treatment 72 hr prior to challenge with Candida albicans (Example 2, Table II). The format is in vivo. The settings on record: one treatment at day 3 before infection. The protocol:
(§1) Mice were injected intravenously with liposomes (4 micromoles phospholipid)and also with free abu-MDP (2-4 mg/kg). The abu-MDP was injected at the same time as the liposome injection. Injections were made at 96 and 48 hr prior to challenge with Candida albicans (5×10^6 cells injected intravenously). Control mice were treated with either liposomes only, or abu-MDP only (4 or 60 mg/kg), or abu-MDP (2-4 mg/kg) encapsulated in liposomes, and similarly challenged with Candida albicans. Each treatment group contained 20 mice. All mice were monitored daily for number of survivors. Statistical analysis of survival time was computed using Mann Whitney U probability analysis, and the numbers of survivors were statistically compared using Fisher Exact probability analysis.
A second experiment was performed by the method described in Example 1, except that the mice were given a single pre-infection treatment at 72 hr prior to challenge, instead of treatments at 96 and 48 hr prior to challenge as in Example 1.

Data set [2] concerns Candida albicans. The experiment in a line: Survival of mice treated with abu-MDP at 96 and 48 hr prior to challenge with Candida albicans (Example 1, Table I). The format is in vivo. To be noted: for Survival No. (%) / Survival Time: no MLV, days 4 and 2 before infection; for Survival No. (%): third set of rows (saline control 0%); for Survival Time: third set of rows (saline control 3.6 days). Here is the method: Multilamellar vesicles (MLVs) were formed by drying down egg phosphatidylcholine and brain phosphatidylserine (7:3 molar ratio) on the inside of a flask. Phosphate-buffered saline lacking divalent cations (PBS) was added (1 ml per 20 micromoles phospholipid), and the flask shaken, either by hand or with a mechanical shaker, until the lipid film was dispersed. When N-acetylmuramyl-L-α-aminobutyryl-D-isoglutamine (abu-MDP) was to be encapsulated, it was included in the aqueous solution before addition to the lipid film. The vesicles formed as the result of shaking the aqueous solution which contained MDP derivative were washed to remove unencapsulated MDP derivative, pelleted by centrifugation at 30,000×g for 20-30 min, and then resuspended in PBS. MLV preparations made without MDP derivative were either pelleted and resuspended as described, or were used without further treatment.
as §1
P values, calculated for survival time and number of survivors at the time when controls (treated only with MLV or with saline) first reached 100% dead, were all less than 0.03. By comparison, the treatments with the same concentration of abu-MDP alone were ineffective (P≥0.05).

Data set [3] is described as follows: Radioactivity of 3H-desMDP in liposome fraction and aqueous supernatant after mixing with pre-formed MLVs (Example 3, Table III). It is filed as physicochemical. Here is the method: MLVs were prepared as described above, hydrating the dried lipid film with PBS. These pre-formed liposomes were then mixed with unencapsulated MDP compound spiked with tritiated N-acetyldesmethylmuramyl-L-alanyl-D-isoglutamine (^3 H-desMDP). The liposome/MDP derivative mixture was washed and pelleted, and the final liposome pellet resuspended in PBS. The radioactivity in the liposome fraction was determined, as well as the radioactivity in the aqueous supernatant from the washing and pelleting steps. […] Thus, MDP compounds are not incorporated into or attached to liposomes in the practice of the invention.

Values joined by “and” are separate entries in the source; they are usually repeats but may differ in a detail not shown here. Identical values can stand only once.

Consider “N-acetylmuramyl-L-α-aminobutyryl-D-isoglutamine [abu-MDP]”, for which the “Survival No. (%)” value in data set [1] (abu-MDP 4 mg/kg) worked out at 0%; in data set [1] (free abu-MDP 60 mg/kg), 32%; in data set [2] (free abu-MDP 4 mg/kg) it was 0%; in data set [2] (free abu-MDP 60 mg/kg), 45%. Besides, the “Survival Time” value was determined as 5.2 days in data set [1] (abu-MDP 4 mg/kg), 6.4 days in data set [1] (free abu-MDP 60 mg/kg), 4.4 days in data set [2] (free abu-MDP 4 mg/kg) and 6.9 days in data set [2] (free abu-MDP 60 mg/kg). Besides, the “protective activity against Candida albicans” value is “ineffective” in data set [2] (abu-MDP alone at the same concentration as used with MLV (P≥0.05)) and “protective activity obtained equivalent to that seen using the lower dose of abu-MDP (2-4 mg/kg) plus MLV” in data set [2] (free abu-MDP alone raised to 60 mg/kg).

With “tritiated N-acetyldesmethylmuramyl-L-alanyl-D-isoglutamine [^3 H-desMDP]”, the cpm/0.1 ml is 557,610 cpm/0.1 ml and 562,800 cpm/0.1 ml in data set [3] (aqueous fraction (supernatant from washing and pelleting)); 1,462 cpm/0.1 ml and 1,304 cpm/0.1 ml in data set [3] (liposome fraction (final pellet resuspended in PBS)). The “% of Total” value in data set [3] (aqueous fraction (supernatant)) was about 100%; in data set [3] (liposome fraction), 0.2%.

The values above are taken from patent publication US4684625A, “Method for enhancing the anti-infective activity of muramyldipeptide derivatives” (Syntex (U.S.A.) Inc., priority 1985, dated 1987).
